Reference: patent publication US20220214363A1, “NOVEL LIGAND ASSAYS” (InsituGen Limited, priority 2019, published 2022)

Molecular target: T1, AR (Homo sapiens, UniProt P10275)
T1 sequence (P10275 1-920): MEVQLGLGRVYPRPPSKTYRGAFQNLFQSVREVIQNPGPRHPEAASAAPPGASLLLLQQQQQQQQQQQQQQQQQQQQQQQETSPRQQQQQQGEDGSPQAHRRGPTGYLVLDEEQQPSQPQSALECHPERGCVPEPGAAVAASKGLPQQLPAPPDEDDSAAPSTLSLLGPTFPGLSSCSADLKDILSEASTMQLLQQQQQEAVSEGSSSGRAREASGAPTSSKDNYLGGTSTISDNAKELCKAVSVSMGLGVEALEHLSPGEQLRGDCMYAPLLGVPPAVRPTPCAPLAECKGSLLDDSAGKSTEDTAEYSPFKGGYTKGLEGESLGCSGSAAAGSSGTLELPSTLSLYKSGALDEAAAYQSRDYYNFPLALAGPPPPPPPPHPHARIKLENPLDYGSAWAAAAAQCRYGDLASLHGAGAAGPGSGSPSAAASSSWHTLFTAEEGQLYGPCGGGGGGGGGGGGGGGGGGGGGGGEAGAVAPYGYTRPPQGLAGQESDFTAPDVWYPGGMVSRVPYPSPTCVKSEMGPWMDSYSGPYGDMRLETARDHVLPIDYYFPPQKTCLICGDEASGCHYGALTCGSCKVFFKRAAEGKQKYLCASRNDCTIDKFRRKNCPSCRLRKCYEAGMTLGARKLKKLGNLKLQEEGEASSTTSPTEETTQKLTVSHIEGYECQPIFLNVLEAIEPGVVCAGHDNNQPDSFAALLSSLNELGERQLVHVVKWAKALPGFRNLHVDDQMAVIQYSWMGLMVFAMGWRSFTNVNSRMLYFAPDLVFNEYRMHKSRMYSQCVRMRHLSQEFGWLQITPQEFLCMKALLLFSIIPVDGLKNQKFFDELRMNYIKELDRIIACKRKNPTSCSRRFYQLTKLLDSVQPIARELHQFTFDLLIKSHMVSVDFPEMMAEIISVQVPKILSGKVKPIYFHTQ
Settings: gelding urine sample spiked with trenbolone before deconjugation and extraction; vs ethanol control set at 100%
Source text: Spiked trenbolone represents a gelding urine sample that had been spiked with trenbolone before the deconjugation and extraction steps. T7 activity measured for the ethanol control was arbitrarily set at 100%.
Racehorse urine samples were collected on race day and steroids deconjugated and extracted using routine processes. The extracted steroids were resuspended in ethanol and subjected to the assay.

SMILES: C[C@]12C=CC3=C4CCC(=O)C=C4CCC3C1CC[C@@H]2O (stereo partly shown) [trenbolone]
- suppression of T7-generated Mango II: suppression of T7-generated Mango II
